Source: ChEMBL document CHEMBL4138123, “Design, synthesis and biological evaluation of novel pyrazolochalcones as potential modulators of PI3K/Akt/mTOR pathway and inducers of apoptosis in breast cancer cells” (Eur J Med Chem, 2017)

Experiments:
Format in all cases: functional
MOLT-4 [1] = test: Cytotoxicity against human MOLT4 cells assessed as growth inhibition after 48 hrs by sulforhodamine B assay; settings: MOLT-4, 48 h; for CC50: read-out: LC50 (the source's name)
NCI-H322M = test: Cytotoxicity against human NCI-H322M cells assessed as growth inhibition after 48 hrs by sulforhodamine B assay; settings: for CC50: read-out: LC50 (the source's name)
COLO 205 = test: Cytotoxicity against human COLO205 cells assessed as growth inhibition after 48 hrs by sulforhodamine B assay; settings: COLO 205, 48 h
SW-620 = test: Cytotoxicity against human SW620 cells assessed as growth inhibition after 48 hrs by sulforhodamine B assay; settings: SW-620, 48 h
SK-MEL-2 = test: Cytotoxicity against human SK-MEL-2 cells assessed as growth inhibition after 48 hrs by sulforhodamine B assay; settings: SK-MEL-2, 48 h
UACC-257 = test: Cytotoxicity against human UACC257 cells assessed as growth inhibition after 48 hrs by sulforhodamine B assay; settings: UACC-257, 48 h
RXF 393 = test: Cytotoxicity against human RXF393 cells assessed as growth inhibition after 48 hrs by sulforhodamine B assay; settings: RXF 393, 48 h
DU-145 = test: Cytotoxicity against human DU145 cells assessed as growth inhibition after 48 hrs by sulforhodamine B assay; settings: DU-145, 48 h; for CC50: read-out: LC50 (the source's name)
HL-60(TB) = test: Cytotoxicity against human HL-60(TB) cells assessed as cell growth at 0.01 uM after 48 hrs by sulforhodamine B assay relative to control; settings: HL-60, 48 h, read-out: Activity
PC-3 = test: Cytotoxicity against human PC3 cells assessed as cell growth at 0.01 uM after 48 hrs by sulforhodamine B assay relative to control; settings: PC-3, 48 h, read-out: Activity
MDA-MB-231 = test: Cytotoxicity against human MDA-MB-231 cells assessed as cell growth at 0.01 uM after 48 hrs by sulforhodamine B assay relative to control; settings: MDA-MB-231, 48 h, read-out: Activity
RPMI-8226 = test: Cytotoxicity against human RPMI8226 cells assessed as cell growth at 0.1 uM after 48 hrs by sulforhodamine B assay relative to control; settings: RPMI-8226, 48 h, read-out: Activity
HOP-62 = test: Cytotoxicity against human HOP62 cells assessed as cell growth at 0.1 uM after 48 hrs by sulforhodamine B assay relative to control; settings: HOP-62, 48 h, read-out: Activity
HCT-116 = test: Cytotoxicity against human HCT116 cells assessed as cell growth at 0.1 uM after 48 hrs by sulforhodamine B assay relative to control; settings: HCT-116, 48 h, read-out: Activity
U-251 [2] = test: Cytotoxicity against human U251 cells assessed as cell growth at 0.1 uM after 48 hrs by sulforhodamine B assay relative to control; settings: U-251, 48 h, read-out: Activity
SK-MEL-5 = test: Cytotoxicity against human SK-MEL-5 cells assessed as cell growth at 0.1 uM after 48 hrs by sulforhodamine B assay relative to control; settings: SK-MEL-5, 48 h, read-out: Activity
IGROV-1 [3] = test: Cytotoxicity against human IGROV1 cells assessed as cell growth at 0.1 uM after 48 hrs by sulforhodamine B assay relative to control; settings: IGROV-1, 48 h, read-out: Activity
OVCAR-4 = test: Cytotoxicity against human OVCAR4 cells assessed as cell growth at 0.1 uM after 48 hrs by sulforhodamine B assay relative to control; settings: OVCAR-4, 48 h, read-out: Activity
BT-549 [4] = test: Cytotoxicity against human BT549 cells assessed as cell growth at 0.1 uM after 48 hrs by sulforhodamine B assay relative to control; settings: BT-549, 48 h, read-out: Activity
SF-268 = test: Cytotoxicity against human SF268 cells assessed as cell growth at 1 uM after 48 hrs by sulforhodamine B assay relative to control; settings: SF-268, 48 h, read-out: Activity
U-251 [5] = test: Cytotoxicity against human U251 cells assessed as cell growth at 1 uM after 48 hrs by sulforhodamine B assay relative to control; settings: U-251, 48 h, read-out: Activity
OVCAR-5 = test: Cytotoxicity against human OVCAR5 cells assessed as cell growth at 1 uM after 48 hrs by sulforhodamine B assay relative to control; settings: OVCAR-5, 48 h, read-out: Activity
ACHN = test: Cytotoxicity against human ACHN cells assessed as cell growth at 1 uM after 48 hrs by sulforhodamine B assay relative to control; settings: read-out: Activity
TK-10 = test: Cytotoxicity against human TK10 cells assessed as cell growth at 1 uM after 48 hrs by sulforhodamine B assay relative to control; settings: TK-10, 48 h, read-out: Activity
MOLT-4 [6] = test: Cytotoxicity against human MOLT4 cells assessed as cell growth at 10 uM after 48 hrs by sulforhodamine B assay relative to control; settings: MOLT-4, 48 h, read-out: Activity
NCI-H460 = test: Cytotoxicity against human NCI-H460 cells assessed as cell growth at 10 uM after 48 hrs by sulforhodamine B assay relative to control; settings: NCI-H460, 48 h, read-out: Activity
HCT-15 = test: Cytotoxicity against human HCT15 cells assessed as cell growth at 10 uM after 48 hrs by sulforhodamine B assay relative to control; settings: HCT-15, 48 h, read-out: Activity
NCI/ADR-RES = test: Cytotoxicity against human NCI/ADR-RES cells assessed as cell growth at 10 uM after 48 hrs by sulforhodamine B assay relative to control; settings: read-out: Activity
SK-OV-3 = test: Cytotoxicity against human SKOV3 cells assessed as cell growth at 10 uM after 48 hrs by sulforhodamine B assay relative to control; settings: SK-OV-3, 48 h, read-out: Activity
Hs-578T = test: Cytotoxicity against human Hs 578T cells assessed as cell growth at 10 uM after 48 hrs by sulforhodamine B assay relative to control; settings: read-out: Activity
CCRF-CEM = test: Cytotoxicity against human CCRF-CEM cells assessed as cell growth at 100 uM after 48 hrs by sulforhodamine B assay relative to control; settings: read-out: Activity
MDA-MB-435 = test: Cytotoxicity against human MDA-MB-435 cells assessed as cell growth at 100 uM after 48 hrs by sulforhodamine B assay relative to control; settings: MDA-MB-435, 48 h, read-out: Activity
IGROV-1 [7] = test: Cytotoxicity against human IGROV1 cells assessed as cell growth at 100 uM after 48 hrs by sulforhodamine B assay relative to control; settings: IGROV-1, 48 h, read-out: Activity
BT-549 [8] = test: Cytotoxicity against human BT549 cells assessed as cell growth at 100 uM after 48 hrs by sulforhodamine B assay relative to control; settings: BT-549, 48 h, read-out: Activity

COc1cc(-c2cc(/C=C/C(=O)c3ccc4c(c3)OCO4)[nH]n2)cc(OC)c1OC
TGI (MOLT-4 [1]): 9.15 µM
CC50 (MOLT-4 [1]): > 100 µM
TGI (NCI-H322M): 19.1 µM
CC50 (NCI-H322M): > 100 µM
LC50 (COLO 205): 7.92 µM
TGI (COLO 205): 3.85 µM
LC50 (lethal concentration, 50% net cell kill) (SW-620): > 100 µM
LC50 (concentration killing 50% of cells) (SK-MEL-2): 81.3 µM
TGI (SK-MEL-2): 28.9 µM
LC50 (UACC-257): > 100 µM
TGI (UACC-257): 40.3 µM
LC50 (concentration killing 50% of cells) (RXF 393): 5.55 µM
TGI (RXF 393): 2.87 µM
TGI (DU-145): 9.56 µM
CC50 (DU-145): > 100 µM
growth at 0.01 µM (HL-60(TB)): 98%
growth at 0.01 µM (PC-3): 100%
growth at 0.01 µM (MDA-MB-231): 101%
growth at 0.1 µM (RPMI-8226): 83%
growth at 0.1 µM (HOP-62): 100%
growth at 0.1 µM (HCT-116): 101%
growth at 0.1 µM (U-251 [2]): 95%
growth at 0.1 µM (SK-MEL-5): 97%
growth at 0.1 µM (IGROV-1 [3]): 97%
growth at 0.1 µM (OVCAR-4): 92%
growth at 0.1 µM (BT-549 [4]): 99%
growth at 1 µM (SF-268): 90%
growth at 1 µM (U-251 [5]): 85%
growth at 1 µM (OVCAR-5): 88%
growth at 1 µM (ACHN): 96%
growth at 1 µM (TK-10): 97%
growth at 10 µM (MOLT-4 [6]): -4%
growth at 10 µM (NCI-H460): -38%
growth at 10 µM (HCT-15): -13%
growth at 10 µM (NCI/ADR-RES): 23%
growth at 10 µM (SK-OV-3): 33%
growth at 10 µM (Hs-578T): 17%
growth at 100 µM (CCRF-CEM): -13%
growth at 100 µM (MDA-MB-435): 4%
growth at 100 µM (IGROV-1 [7]): -8%

COc1ccc(C(=O)/C=C/c2cc(-c3ccc4c(c3)OCO4)n[nH]2)cc1OC
TGI (MOLT-4 [1]): 10.3 µM
CC50 (MOLT-4 [1]): > 100 µM
TGI (NCI-H322M): 7.3 µM
CC50 (NCI-H322M): 29.6 µM
LC50 (COLO 205): 45.9 µM
TGI (COLO 205): 14 µM
LC50 (lethal concentration, 50% net cell kill) (SW-620): 15.9 µM
TGI (SW-620): 4.81 µM
LC50 (concentration killing 50% of cells) (SK-MEL-2): 68 µM
TGI (SK-MEL-2): 23.2 µM
LC50 (UACC-257): 56.4 µM
TGI (UACC-257): 22.1 µM
LC50 (concentration killing 50% of cells) (RXF 393): 15.9 µM
TGI (RXF 393): 5.39 µM
GI50 (DU-145): 1.86 µM
TGI (DU-145): 4.27 µM
CC50 (DU-145): 9.8 µM
growth at 0.01 µM (HL-60(TB)): 97%
growth at 0.01 µM (PC-3): 99%
growth at 0.01 µM (MDA-MB-231): 102%
growth at 0.1 µM (RPMI-8226): 97%
growth at 0.1 µM (HOP-62): 99%
growth at 0.1 µM (HCT-116): 95%
growth at 0.1 µM (U-251 [2]): 91%
growth at 0.1 µM (SK-MEL-5): 97%
growth at 0.1 µM (IGROV-1 [3]): 93%
growth at 0.1 µM (OVCAR-4): 94%
growth at 0.1 µM (BT-549 [4]): 99%
growth at 1 µM (SF-268): 92%
growth at 1 µM (U-251 [5]): 69%
growth at 1 µM (OVCAR-5): 86%
growth at 1 µM (ACHN): 94%
growth at 1 µM (TK-10): 97%
growth at 10 µM (NCI-H460): -56%
growth at 10 µM (HCT-15): 6%
growth at 10 µM (SK-OV-3): 17%
growth at 10 µM (Hs-578T): -9%
growth at 100 µM (CCRF-CEM): -13%
growth at 100 µM (MDA-MB-435): -50%
growth at 100 µM (IGROV-1 [7]): -59%
growth at 100 µM (BT-549 [8]): -90%
